Test results: patent publication US20240408068A1, “Helicase Primase Inhibitors For Treating Cancer In A Combination Therapy With Oncolytic Viruses” (priority 2018, published 2024)

System: CT26 tumor
Test: oHSV animal model: tumor volume in syngeneic bilaterally-inoculated subcutaneous CT26 tumor-bearing mice
Type: in vivo, Balbc/j mice
Protocol: Assessment of the efficacy of an oncolytic virus treatment in the presence and absence of a potential virostatic test compound (Example 7(-)) in a syngeneic bilaterally-inoculated subcutaneous CT26 tumor-bearing mouse model.
CT26 tumor cells (500 000 cell in 100 μL) were subcutaneously inoculated bilaterally into the right and left flanks of 9 week-old immuno-competent female Balbc/j mice after 20 days acclimation (Provider: Charles River Laboratories—BP 0109—F 69592 L'Arbresle Cedex).
The inoculation procedure of colorectal CT26 tumors in mice was as follows: • At the end of the 20 days acclimation period, and in order to identify the animal all along the experimental procedure (for tumor volume monitoring in particular), mice were identified using tattoo. • The day before tumor cell inoculation, mice have been shaved at the injection sites, under isoflurane gas anesthesia (4% induction and 2% maintain). • The day of inoculation, mice were anesthetized with gas anesthesia with 4% isoflurane induction and 2% isoflurane for anesthesia maintaining. • Tumor cells to be inoculated were resuspended in sterile PBS and the needed volume was loaded in 1 ml syringe with a 26 gauge needle (500000 cells/100 μL).
Virus injection (with HSV-1 Herpes Simplex Virus or vehicle) was performed with a 29G gauge needle (0.5 mL) insulin syringe when tumors reached an average volume of 40 mm^3(on day 7). At this time, virus was injected intratumorally (50 μL corresponding to 5×10^6 HSV-1 (experimental groups 3, 5, 6 and 8) or 100 μL corresponding to 1×10^8 HSV-1 (experimental groups 4 and 7)), into the tumor of the right flank.
Pharmacological animal groups (8 animal per group, 64 animals in total) were organized as such: • 1. Control virus-untreated group: test compound vehicle (200 μL, 5% DMSO; 0.5% hydroxypropylmethylcellulose (HPMC) in PBS) oral gavage (20 gauge needle standard suspension applicator), once a day, for 10 days and starting 72 h after virus injection for the other groups. • 2. Control virus vehicle-treated group: 50 μL of virus vehicle, intratumoral injection when tumors reached an average volume of app. 40 mm^3, with test compound vehicle, oral gavage, once a day, for 10 days and starting 72 h after vehicle virus injection. • 3. HSV-1 (quantity 1; 5×10^6 pfu)-treated group: 50 μL of HSV-1 (5×10^6), intratumoral injection when tumors reached an average volume of app. 40 mm^3, with test compound vehicle, oral gavage, once a day, for 10 days and starting 72 h after virus injection, and with anti-PD1/anti-CTLA4 vehicle, intraperitoneal injection (200 μL PBS) on the same day as the virus injection, and then 3 administrations spaced 3 days apart each other (day 7, 10, 13 and 16). • 4. HSV-1 (quantity 2; 1×10^8 pfu)-treated group: 100 μL of HSV-1 (1×10^8) intratumoral injection when tumors reached an average volume of app. 40 mm^3, with test compound vehicle, oral gavage, once a day, for 10 days and starting 72 h after virus injection. • 5. HSV-1 (quantity 1; 5×10^6 pfu)-test compound-treated group: 50 μL of HSV-1 (5×10^6), intratumoral injection when tumors reached an average volume of app. 40 mm^3, with Example 7(-) (10 mg/kg, 20 mg/mL stock in DMSO, final 1 mg/mL, 5% DMSO; 0.5% HPMC in PBS (w/v), the suspension has been sonicated (2 min ultrasound bath, room temperature)), oral gavage (200 μL), once a day, for 10 days and starting 72 h after virus injection, and with anti-PD1/anti-CTLA4 vehicle, intraperitoneal injection (200 μL, PBS) on the same day as the virus injection, and then 3 administrations spaced 3 days apart each other (day 7, 10, 13 and 16). • 6. […]

[1] = day 0, with HSV-1 1·10^8, 10 mg/kg po from 72 h pi
[2] = day 0, with HSV-1 5·10^6, 10 mg/kg po from 0 h pi
[3] = day 0, with HSV-1 5·10^6, 10 mg/kg po from 72 h pi
[4] = day 5, with HSV-1 1·10^8, 10 mg/kg po from 72 h pi
[5] = day 5, with HSV-1 5·10^6, 10 mg/kg po from 0 h pi
[6] = day 5, with HSV-1 5·10^6, 10 mg/kg po from 72 h pi
[7] = day 7, with HSV-1 1·10^8, 10 mg/kg po from 72 h pi
[8] = day 7, with HSV-1 5·10^6, 10 mg/kg po from 0 h pi
[9] = day 7, with HSV-1 5·10^6, 10 mg/kg po from 72 h pi
[10] = day 10, with HSV-1 1·10^8, 10 mg/kg po from 72 h pi
[11] = day 10, with HSV-1 5·10^6, 10 mg/kg po from 0 h pi
[12] = day 10, with HSV-1 5·10^6, 10 mg/kg po from 72 h pi
[13] = day 12, with HSV-1 1·10^8, 10 mg/kg po from 72 h pi
[14] = day 12, with HSV-1 5·10^6, 10 mg/kg po from 0 h pi
[15] = day 12, with HSV-1 5·10^6, 10 mg/kg po from 72 h pi
[16] = day 14, with HSV-1 1·10^8, 10 mg/kg po from 72 h pi
[17] = day 14, with HSV-1 5·10^6, 10 mg/kg po from 0 h pi
[18] = day 14, with HSV-1 5·10^6, 10 mg/kg po from 72 h pi
[19] = day 17, with HSV-1 1·10^8, 10 mg/kg po from 72 h pi
[20] = day 17, with HSV-1 5·10^6, 10 mg/kg po from 0 h pi
[21] = day 17, with HSV-1 5·10^6, 10 mg/kg po from 72 h pi
[22] = day 19, with HSV-1 1·10^8, 10 mg/kg po from 72 h pi
[23] = day 19, with HSV-1 5·10^6, 10 mg/kg po from 0 h pi
[24] = day 19, with HSV-1 5·10^6, 10 mg/kg po from 72 h pi

Cc1nc(N(C)C(=O)Cc2ccc(-c3cc(F)ccc3F)cc2)sc1[S@@](C)(=N)=O [Example 7(−), (−)-(S)-2-(2′,5′-Difluoro-[1,1′-biphenyl]-4-yl)-N-methyl-N-(4-methyl-5-(S-methylsulfonimidoyl)thiazol-2-yl)acetamide]
Median tumor volume - Left tumors [1]: 0 mm^3 | Median tumor volume - Right tumors [1]: 0 mm^3 | Median tumor volume - Right tumors (day 0, with HSV-1 5·10^6 + aPD-1 + aCTLA4, 10 mg/kg po from 72 h pi): 0 mm^3 | Median tumor volume - Left tumors (day 0, with HSV-1 5·10^6 + aPD-1 + aCTLM, 10 mg/kg po from 72 h pi): 0 mm^3 | Median tumor volume - Left tumors [2]: 0 mm^3 | Median tumor volume - Right tumors [2]: 0 mm^3 | Median tumor volume - Left tumors [3]: 0 mm^3 | Median tumor volume - Right tumors [3]: 0 mm^3 | Median tumor volume - Left tumors [4]: 18.17 mm^3 | Median tumor volume - Right tumors [4]: 16.55 mm^3 | Median tumor volume - Right tumors (day 5, with HSV-1 5·10^6 + aPD-1 + aCTLA4, 10 mg/kg po from 72 h pi): 16.235 mm^3 | Median tumor volume - Left tumors (day 5, with HSV-1 5·10^6 + aPD-1 + aCTLM, 10 mg/kg po from 72 h pi): 14.66 mm^3 | Median tumor volume - Left tumors [5]: 15.755 mm^3 | Median tumor volume - Right tumors [5]: 16.705 mm^3 | Median tumor volume - Left tumors [6]: 14.155 mm^3 | Median tumor volume - Right tumors [6]: 17.665 mm^3 | Median tumor volume - Left tumors [7]: 23.55 mm^3 | Median tumor volume - Right tumors [7]: 39.735 mm^3 | Median tumor volume - Right tumors (day 7, with HSV-1 5·10^6 + aPD-1 + aCTLA4, 10 mg/kg po from 72 h pi): 31.03 mm^3 | Median tumor volume - Left tumors (day 7, with HSV-1 5·10^6 + aPD-1 + aCTLM, 10 mg/kg po from 72 h pi): 18.32 mm^3 | Median tumor volume - Left tumors [8]: 21.61 mm^3 | Median tumor volume - Right tumors [8]: 25.5 mm^3 | Median tumor volume - Left tumors [9]: 22.85 mm^3 | Median tumor volume - Right tumors [9]: 36.435 mm^3 | Median tumor volume - Left tumors [10]: 33.055 mm^3 | Median tumor volume - Right tumors [10]: 74.725 mm^3 | Median tumor volume - Right tumors (day 10, with HSV-1 5·10^6 + aPD-1 + aCTLA4, 10 mg/kg po from 72 h pi): 72.935 mm^3 | Median tumor volume - Left tumors (day 10, with HSV-1 5·10^6 + aPD-1 + aCTLM, 10 mg/kg po from 72 h pi): 47.345 mm^3 | Median tumor volume - Left tumors [11]: 43.385 mm^3 | Median tumor volume - Right tumors [11]: 43.32 mm^3 | Median tumor volume - Left tumors [12]: 55.18 mm^3 | Median tumor volume - Right tumors [12]: 45.605 mm^3 | Median tumor volume - Left tumors [13]: 92.98 mm^3 | Median tumor volume - Right tumors [13]: 115.17 mm^3 | Median tumor volume - Right tumors (day 12, with HSV-1 5·10^6 + aPD-1 + aCTLA4, 10 mg/kg po from 72 h pi): 94.56 mm^3 | Median tumor volume - Left tumors (day 12, with HSV-1 5·10^6 + aPD-1 + aCTLM, 10 mg/kg po from 72 h pi): 58.12 mm^3 | Median tumor volume - Left tumors [14]: 73.31 mm^3 | Median tumor volume - Right tumors [14]: 48.78 mm^3 | Median tumor volume - Left tumors [15]: 121.82 mm^3 | Median tumor volume - Right tumors [15]: 76.655 mm^3 | Median tumor volume - Left tumors [16]: 224.29 mm^3 | Median tumor volume - Right tumors [16]: 142.49 mm^3 | Median tumor volume - Right tumors (day 14, with HSV-1 5·10^6 + aPD-1 + aCTLA4, 10 mg/kg po from 72 h pi): 105.02 mm^3 | Median tumor volume - Left tumors (day 14, with HSV-1 5·10^6 + aPD-1 + aCTLM, 10 mg/kg po from 72 h pi): 71.44 mm^3 | Median tumor volume - Left tumors [17]: 112.98 mm^3 | Median tumor volume - Right tumors [17]: 39.01 mm^3 | Median tumor volume - Left tumors [18]: 141.445 mm^3 | Median tumor volume - Right tumors [18]: 86.87 mm^3 | Median tumor volume - Left tumors [19]: 348.78 mm^3 | Median tumor volume - Right tumors [19]: 93.34 mm^3 | Median tumor volume - Right tumors (day 17, with HSV-1 5·10^6 + aPD-1 + aCTLA4, 10 mg/kg po from 72 h pi): 60.17 mm^3 | Median tumor volume - Left tumors (day 17, with HSV-1 5·10^6 + aPD-1 + aCTLM, 10 mg/kg po from 72 h pi): 66.86 mm^3 | Median tumor volume - Left tumors [20]: 169.68 mm^3 | Median tumor volume - Right tumors [20]: 60.71 mm^3 | Median tumor volume - Left tumors [21]: 219.98 mm^3 | Median tumor volume - Right tumors [21]: 99.21 mm^3 | Median tumor volume - Left tumors [22]: 352.82 mm^3 | Median tumor volume - Right tumors [22]: 100 mm^3 | Median tumor volume - Right tumors (day 19, with HSV-1 5·10^6 + aPD-1 + aCTLA4, 10 mg/kg po from 72 h pi): 84.68 mm^3 | Median tumor volume - Left tumors (day 19, with HSV-1 5·10^6 + aPD-1 + aCTLM, 10 mg/kg po from 72 h pi): 49.84 mm^3 | Median tumor volume - Left tumors [23]: 474.53 mm^3 | Median tumor volume - Right tumors [23]: 72.69 mm^3 | Median tumor volume - Left tumors [24]: 285.49 mm^3 | Median tumor volume - Right tumors [24]: 105 mm^3
